Source: patent US10087178B2, “Substituted spiropyrido[1,2-a]pyrazine derivative and medicinal use thereof as HIV integrase inhibitor” (priority 2012, dated 2018)
Where a name gives a salt, the structure may show the parent alone. Read-outs that look alike come from different tables or passages of the source.

Tested on: HIV-1 NL4-3 strain
Assay: Evaluation of antiviral activity: acute infection system of MT-4 cell with HIV-1 NL4-3 strain
Format: cell-based
Conditions: Human immunodeficiency virus 1, NL43, MT4, 120 h
[1] = MT-4 cells infected with HIV-1 NL4-3 strain (MOI 0.05), cultured 5 days, Cell Titer-Glo, read-out: antiviral activity (EC50)
[2] = read-out: antiviral activity (EC50), MT-4 cells infected with HIV-1 NL4-3 strain (MOI 0.05), cultured 5 days, Cell Titer-Glo

Row | Compound | EC50 [1] [nM] | EC50 [2] [nM]
1 | CO[C@H]1C[C@@]2(Cn3cc(C(=O)NCc4ccc(F)cc4F)c(=O)c(O)c3C(=O)N2C(C)C)C1 [Example S52, N-(2,4-difluorobenzyl)-9′-hydroxy-2′-isopropyl-trans-3-methoxy-1′,8′-dioxo-1′,2′,4′,8′-tetrahydrospiro[cyclobutane-1,3′-pyrido[1,2-a]pyrazine]-7′-carboxamide hydrochloride] | 3.5 | –
2 | CO[C@H]1C[C@]2(Cn3cc(C(=O)NCc4ccc(F)cc4F)c(=O)c(O)c3C(=O)N2C(C)C)C1 [Example S53, N-(2,4-difluorobenzyl)-9′-hydroxy-2′-isopropyl-cis-3-methoxy-1′,8′-dioxo-1′,2′,4′,8′-tetrahydrospiro[cyclobutane-1,3′-pyrido[1,2-a]pyrazine]-7′-carboxamide hydrochloride] | 10 | –
3 | CC(C)N1C(=O)c2c(O)c(=O)c(C(=O)NCc3ccc(F)cc3F)cn2C[C@]12C[C@@H](O)C2 [Example S54, N-(2,4-difluorobenzyl)- trans-3,9′-dihydroxy-2′-isopropyl-1′,8′-dioxo-1′,2′,4′,8′-tetrahydrospiro[cyclobutane-1,3′-pyrido[1,2-a]pyrazine]-7′-carboxamide hydrochloride] | 27 | –
4 | CC(C)N1C(=O)c2c(O)c(=O)c(C(=O)NCc3ccc(F)cc3F)cn2C[C@]12C[C@H](O)C2 [Example S55, N-(2,4-difluorobenzyl)-cis-3,9′-dihydroxy-2′-isopropyl-1′,8′-dioxo-1′,2′,4′,8′-tetrahydrospiro[cyclobutane-1,3′-pyrido[1,2-a]pyrazine]-7′-carboxamide hydrochloride] | 33 | –
5 | CCO[C@H]1C[C@@]2(Cn3cc(C(=O)NCc4cccc(Cl)c4F)c(=O)c(O)c3C(=O)N2CC)C1 [Example S56, N-(3-chloro-2-fluorobenzyl)- trans-3-ethoxy-2′-ethyl-9′-hydroxy-1′,8′-dioxo-1′,2′,4′,8′-tetrahydrospiro[cyclobutane-1,3′-pyrido[1,2-a]pyrazine]-7′-carboxamide hydrochloride] | 5.1 | –
6 | CCO[C@H]1C[C@]2(Cn3cc(C(=O)NCc4cccc(Cl)c4F)c(=O)c(O)c3C(=O)N2CC)C1 [Example S57, N-(3-chloro-2-fluorobenzyl)- cis-3-ethoxy-2′-ethyl-9′-hydroxy-1′,8′-dioxo-1′,2′,4′,8′-tetrahydrospiro[cyclobutane-1,3′-pyrido[1,2-a]pyrazine]-7′-carboxamide hydrochloride] | 4.7 | –
7 | CCN1C(=O)c2c(O)c(=O)c(C(=O)NCc3cccc(Cl)c3F)cn2C[C@]12C[C@@H](CO)C2 [Example S58, N-(3-chloro-2-fluorobenzyl)-2′-ethyl-9′-hydroxy-trans-3-(hydroxymethyl)-1′,8′-dioxo-1′,2′,4′,8′-tetrahydrospiro[cyclobutane-1,3′-pyrido[1,2-a]pyrazine]-7′-carboxamide hydrochloride] | 6.8 | –
8 | CCN1C(=O)c2c(O)c(=O)c(C(=O)NCc3cccc(Cl)c3F)cn2C[C@]12C[C@@H](COC)C2 [Example S59, N-(3-chloro-2-fluorobenzyl)-2′-ethyl-9′-hydroxy-trans-3-(methoxymethyl)-1′,8′-dioxo-1′,2′,4′,8′-tetrahydrospiro[cyclobutane-1,3′-pyrido[1,2-a]pyrazine]-7′-carboxamide hydrochloride] | 4 | –
9 | CCN1C(=O)c2c(O)c(=O)c(C(=O)NCc3cccc(Cl)c3F)cn2C[C@]12C[C@H](CO)C2 [Example S60, N-(3-chloro-2-fluorobenzyl)-2′-ethyl-9′-hydroxy-cis-3-(hydroxymethyl)-1′,8′-dioxo-1′,2′,4′,8′-tetrahydrospiro[cyclobutane-1,3′-pyrido[1,2-a]pyrazine]-7′-carboxamide hydrochloride] | 13 | –
10 | CCN1C(=O)c2c(O)c(=O)c(C(=O)NCc3cccc(Cl)c3F)cn2C[C@]12C[C@H](COC)C2 [Example S61, N-(3-chloro-2-fluorobenzyl)-2′-ethyl-9′-hydroxy-cis-3-(methoxymethyl)-1′,8′-dioxo-1′,2′,4′,8′-tetrahydrospiro[cyclobutane-1,3′-pyrido[1,2-a]pyrazine]-7′-carboxamide hydrochloride] | 5.1 | –
11 | CO[C@H]1C[C@@]2(Cn3cc(C(=O)NCc4cccc(Cl)c4F)c(=O)c(O)c3C(=O)N2C)C1 [Example S62, N-(3-chloro-2-fluorobenzyl)-9′-hydroxy-trans-3-methoxy-2′-methyl-1′,8′-dioxo-1′,2′,4′,8′-tetrahydrospiro[cyclobutane-1,3′-pyrido[1,2-a]pyrazine]-7′-carboxamide hydrochloride] | 4.6 | –
12 | CO[C@H]1C[C@]2(CN(C)C(=O)c3c(OC(C)=O)c(=O)c(C(=O)NCc4cccc(Cl)c4F)cn32)C1 [Example S64, 7′-(3-chloro-2-fluorobenzylcarbamoyl)-cis-3-methoxy-2′-methyl-1′,8′-dioxo-1′,2′,3′,8′-tetrahydrospiro[cyclobutane-1,4′-pyrido[1,2-a]pyrazin]-9′-yl acetate] | 2.8 | –
13 | CCC(=O)Oc1c2n(cc(C(=O)NCc3cccc(Cl)c3F)c1=O)[C@]1(CN(C)C2=O)C[C@H](OC)C1 [Example S65, 7′-(3-chloro-2-fluorobenzylcarbamoyl)-cis-3-methoxy-2′-methyl-1′,8′-dioxo-1′,2′,3′,8′-tetrahydrospiro[cyclobutane-1,4′-pyrido[1,2-a]pyrazin]-9′-yl propionate] | 1 | –
14 | CO[C@H]1C[C@]2(CN(C)C(=O)c3c(OC(=O)C(C)C)c(=O)c(C(=O)NCc4cccc(Cl)c4F)cn32)C1 [Example S66, 7′-(3-chloro-2-fluorobenzylcarbamoyl)-cis-3-methoxy-2′-methyl-1′,8′-dioxo-1′,2′,3′,8′-tetrahydrospiro[cyclobutane-1,4′-pyrido[1,2-a]pyrazin]-9′-yl isobutyrate] | 0.9 | –
15 | CCC(=O)Oc1c2n(cc(C(=O)NCc3cccc(Cl)c3F)c1=O)[C@]1(CN(C)C2=O)C[C@H](COC)C1 [Example S67, 7′-(3-chloro-2-fluorobenzylcarbamoyl)-cis-3-(methoxymethyl)-2′-methyl-1′,8′-dioxo-1′,2′,3′,8′-tetrahydrospiro[cyclobutane-1,4′-pyrido[1,2-a]pyrazin]-9′-yl propionate] | 0.9 | –
16 | COC[C@H]1C[C@]2(CN(C)C(=O)c3c(OC(=O)C(C)C)c(=O)c(C(=O)NCc4cccc(Cl)c4F)cn32)C1 [Example S68, 7′-(3-chloro-2-fluorobenzylcarbamoyl)-cis-3-(methoxymethyl)-2′-methyl-1′,8′-dioxo-1′,2′,3′,8′-tetrahydrospiro[cyclobutane-1,4′-pyrido[1,2-a]pyrazin]-9′-yl isobutyrate] | 0.7 | –
17 | CCCCCCCCCCCCCCCC(=O)Oc1c2n(cc(C(=O)NCc3cccc(Cl)c3F)c1=O)[C@]1(CN(C)C2=O)C[C@H](COC)C1 [Example S69, 7′-(3-chloro-2-fluorobenzylcarbamoyl)-cis-3-(methoxymethyl)-2′-methyl-1′,8′-dioxo-1′,2′,3′,8′-tetrahydrospiro[cyclobutane-1,4′-pyrido[1,2-a]pyrazin]-9′-yl palmitate] | 1 | –
18 | COC[C@H]1C[C@]2(CN(C)C(=O)c3c(OC(=O)c4ccccc4)c(=O)c(C(=O)NCc4cccc(Cl)c4F)cn32)C1 [Example S70, 7′-(3-chloro-2-fluorobenzylcarbamoyl)-cis-3-(methoxymethyl)-2′-methyl-1′,8′-dioxo-1′,2′,3′,8′-tetrahydrospiro[cyclobutane-1,4′-pyrido[1,2-a]pyrazin]-9′-yl benzoate] | 1.4 | –
19 | COC[C@H]1C[C@]2(CN(C)C(=O)c3c(OC(=O)C(C)(C)C)c(=O)c(C(=O)NCc4cccc(Cl)c4F)cn32)C1 [Example S71, 7′-(3-chloro-2-fluorobenzylcarbamoyl)-cis-3-(methoxymethyl)-2′-methyl-1′,8′-dioxo-1′,2′,3′,8′-tetrahydrospiro[cyclobutane-1,4′-pyrido[1,2-a]pyrazin]-9′-yl pivalate] | 1.9 | –
20 | COC[C@H]1C[C@]2(CN(C)C(=O)c3c(OC(=O)c4ccc(C)cc4)c(=O)c(C(=O)NCc4cccc(Cl)c4F)cn32)C1 [Example S72, 7′-(3-chloro-2-fluorobenzylcarbamoyl)-cis-3-(methoxymethyl)-2′-methyl-1′,8′-dioxo-1′,2′,3′,8′-tetrahydrospiro[cyclobutane-1,4′-pyrido[1,2-a]pyrazin]-9′-yl 4-methylbenzoate] | 0.9 | –
21 | COC[C@H]1C[C@]2(CN(C)C(=O)c3c(OC(=O)CN(C)C)c(=O)c(C(=O)NCc4cccc(Cl)c4F)cn32)C1 [Example S73, 7′-(3-chloro-2-fluorobenzylcarbamoyl)-cis-3-(methoxymethyl)-2′-methyl-1′,8′-dioxo-1′,2′,3′,8′-tetrahydrospiro[cyclobutane-1,4′-pyrido[1,2-a]pyrazin]-9′-yl 2-(dimethylamino)acetate dihydrochloride] | 1.1 | –
22 | CCN1C[C@@]2(C[C@@H]2CO)n2cc(C(=O)NCc3ccc(F)cc3F)c(=O)c(O)c2C1=O [Example T1, (1S,2S)-N-(2,4-difluorobenzyl)-2′-ethyl-9′-hydroxy-2-(hydroxymethyl)-1′,8′-dioxo-1′,2′,3′,8′-tetrahydrospiro[cyclopropane-1,4′-pyrido[1,2-a]pyrazine]-7′-carboxamide hydrochloride] | – | 18
23 | CCN1C[C@@]2(C[C@@H]2COC)n2cc(C(=O)NCc3ccc(F)cc3F)c(=O)c(O)c2C1=O [Example T2, (1S,2S)-N-(2,4-difluroobenzyl)-2′-ethyl-9′-hydroxy-2-(methoxymethyl)-1′,8′-dioxo-1′,2′,3′,8′-tetrahydrospiro[cyclopropane-1,4′-pyrido[1,2-a]pyrazine]-7′-carboxamide hydrochloride] | 4.2 | –
24 | COC[C@H]1C[C@@]12CN(C)C(=O)c1c(O)c(=O)c(C(=O)NCc3ccc(F)cc3F)cn12 [Example T3, (1S,2S)-N-(2,4-difluorobenzyl)-9′-hydroxy-2-(methoxymethyl)-2′-methyl-1′,8′-dioxo-1′,2′,3′,8′-tetrahydrospiro[cyclopropane-1,4′-pyrido[1,2-a]pyrazine]-7′-carboxamide hydrochloride] | – | 4.5
